One data set addresses opioid μ receptor (Rattus norvegicus, UniProt P33535). The following applies: for selectivity ratio μ/δ: ratio of binding Ki values; for Ki: read-out: Ki (nM) ± SEM μ, displacement of [3H]DAMGO (1.4-3.0 nM), rat brain membranes. Background: In a radioligand displacement assay an active substance lowers the binding of a labelled ligand.
Another data set has as its target opioid κ receptor (Cavia porcellus, UniProt P41144). The following applies: for selectivity ratio κ/δ: ratio of binding Ki values; for Ki: read-out: Ki (nM) ± SEM κ, displacement of [3H]U69,593 (1.2-[…]), guinea pig brain membranes.
Another data set deals with mice. Kind of data set: 55° C. tail-flick antinociception test in mice. The following applies: for A50: at time of peak drug effect; for naloxone sensitivity: naloxone 10 mg/kg ip, -10 min, yes = greater than 80% reduction in the antinociceptive effect. On the procedure:
Analgesic Testing and Assessment of Tolerance Development. The analgesic activity of selected ligands is tested in mice using the 55° C. tail-flick test as previously described. (See Wells et al., supra.) The test compounds are administered by the intracerbroventricular (icv) route. […] To determine whether the analgesic activity of the tested compounds is mediated through opioid receptors, the blockade of antinociceptive activity by pretreatment with naloxone is carried out. The analgesic activity was considered as naloxone sensitive if greater than 80% reduction in the antinociceptive response is observed.
Antinociceptive Studies. Male ICR mice (Harlan) are used for all evaluations. Mice are housed in a temperature and humidity controlled vivarium on a 12:12 h light:dark cycle with unlimited access to food and water prior to the formal procedures. […] The dihydrochloride salt of 7h is dissolved in water and injected in a volume of 5 μL. All other compounds are dissolved in 100% DMSO and injected in a volume of 5 μL. Antinociceptive assays are performed at various times after injection.
Percent antinociception is calculated using the formula: % MPE (maximal possible effect)=100×(test−control)/(cutoff−control) where control is the predrug observation, test is the postdrug observation, and cutoff is the maximal length of stimulus allowed (10 s for 55° C. tail-flick). Antinociceptive A50 values and 95% confidence intervals are determined using linear regression software (FlashCalc). Opioid activity of the test compounds are assessed by pretreating animals with naloxone (10 mg/kg ip, −10 min) followed by an icv injection of an approximate A90 dose of test compound. […] Antinociception is assessed in the 55° C. tail-flick test at 10, 20 and 30 min. A positive response to a fixed dose of naloxone is indicated when greater than 80% reduction in the antinociceptive effect of the agonist is observed.

The next data set has as its target T1, opioid δ receptor (Rattus norvegicus, UniProt P33533).
T1 construct: Rat membranes are prepared each day using a partially thawed frozen rat brain; from tissue; host or cells: rat brain membranes
Description: Opioid δ receptor binding, [3H]DADLE displacement in rat brain membranes. The following applies: for Ki: displacement of [3H]DADLE (1.3-2.0 nM), rat brain membranes, 100 nM DAMGO to block μ sites, read-out: Ki (nM) ± SEM δ.

In another data set the target is δ receptor (Cavia porcellus, UniProt A0A286XTF2). Kind of data set: biochemical. On the set-up: Emax: dose or concentration left out as unconfirmed.
The target in data set [1] is T2, μ receptor (Cavia porcellus, UniProt A0ACM8Q262). The following applies: for Ki: read-out: antagonist activity apparent Ki (nM ± SD) μ, inhibition of DAMGO (10 μM) stimulated [35S]GTP-γ-S binding; for EC50: read-out: agonist activity EC50 (nM ± SD) μ, δ and κ sites blocked with TIPP (1 μM) and nor-BNI (6 nM).
Data set [2] has as its target T2, μ receptor. Kind of data set: biochemical. More on the design: dose or concentration left out as unconfirmed. The following applies: read-out: agonist activity Emax % μ.
For data set [3], the target named is T3, δ receptor (mouse vas deferens) (Mus musculus, UniProt P32300). Description: Mouse vas deferens (MVD) smooth muscle bioassay. The following applies: for IC50: inhibition of electrically stimulated contractions, read-out: agonist activity MVD (δ) IC50. On the procedure:
(§1) Bioassays in Smooth Muscle Preparations. The functional activity profiles of selected ligands are also determined in the mouse vas deferens (MVD) and guinea pig ileum (GPI) smooth muscle preparations as described previously.
(§2) The agonist activity is determined by the ability of the compound to inhibit electrically stimulated contractions of the GPI and MVD. The GPI is primarily a μ receptor preparation, even though the ileum does also contain κ receptors. In the MVD, the opioid effects are predominantly mediated through δ receptors, but μ and κ receptors also exist in this tissue.
(§3) Tissues came from male ICR mice weighing 25-40 g and male Hartley guinea pigs weighing 250-500 g. The tissues are tied to gold chain with suture silk, suspended in 20 mL baths containing 37° C. oxygenated (95% O2, 5% CO2) Krebs bicarbonate solution (magnesium free for the MVD), and allowed to equilibrate for 15 min. The tissues are then stretched to optimal length previously determined to be 1 g tension (0.5 g for MVD) and allowed to equilibrate for 15 min. The tissues are stimulated transmurally between platinum wire electrodes at 0.1 Hz, 0.4 ms pulses (2-ms pulses for MVD), and supramaximal voltage. […] Tissues not producing typical results are not used. Experimental compounds were added to the baths in 14-60 μL volumes. Succeeding doses of agonist are added cumulatively to the bath at 3 min intervals to produce a concentration-response curve. The tissues are then washed extensively with fresh buffer until the original contraction height is reestablished. […] The tissues are then washed with fresh buffer for 30 min, and the agonist dose-response curve was repeated. Rightward shifts in the dose-response curves are calculated by dividing the antagonized dose-response curve IC50 value by the unantagonized IC50 value. IC50 values represent the mean of two to four tissues. IC50 estimates and their associated standard errors are determined by using a computerized nonlinear least-squares method. (MINSQ Least Squares Parameter Estimation, version 3.05; MicroMath Inc., 1999.)

Data set [4] addresses T3, δ receptor (mouse vas deferens). Kind of data set: Mouse vas deferens (MVD) smooth muscle bioassay. More on the design: from tissue; host or cells: mouse vas deferens (male ICR mice). As for the experimental part:
as §1, §2, §3

The target of a further data set is κ receptor (Cavia porcellus, UniProt P41144). The following applies: read-out: antagonist activity apparent Ki (nM ± SD) κ.

The structures appear in SMILES notation. Counter-ions that a name gives are not always drawn.

For orientation: melting point means the temperature, or range, at which the solid turns liquid. One may read the Emax as the maximal effect, on the per cent scale that the assay sets. As usually defined, the EC50 is the concentration giving half of the maximal effect. As a reminder, the IC50 is the point on the concentration scale where inhibition reaches its midpoint.

T2 sequence (A0ACM8Q262 1-400): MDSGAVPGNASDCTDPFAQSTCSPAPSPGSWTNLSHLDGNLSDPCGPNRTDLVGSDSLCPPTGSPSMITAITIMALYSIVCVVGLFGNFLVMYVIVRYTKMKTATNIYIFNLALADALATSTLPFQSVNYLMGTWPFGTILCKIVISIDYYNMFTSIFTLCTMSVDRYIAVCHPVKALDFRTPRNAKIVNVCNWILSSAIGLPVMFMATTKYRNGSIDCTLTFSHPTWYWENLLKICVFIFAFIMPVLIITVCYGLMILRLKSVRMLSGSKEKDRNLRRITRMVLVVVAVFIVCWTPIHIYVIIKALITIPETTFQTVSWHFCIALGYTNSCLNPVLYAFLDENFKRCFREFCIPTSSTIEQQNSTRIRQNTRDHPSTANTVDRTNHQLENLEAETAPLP
T1 sequence (P33533 whole entry): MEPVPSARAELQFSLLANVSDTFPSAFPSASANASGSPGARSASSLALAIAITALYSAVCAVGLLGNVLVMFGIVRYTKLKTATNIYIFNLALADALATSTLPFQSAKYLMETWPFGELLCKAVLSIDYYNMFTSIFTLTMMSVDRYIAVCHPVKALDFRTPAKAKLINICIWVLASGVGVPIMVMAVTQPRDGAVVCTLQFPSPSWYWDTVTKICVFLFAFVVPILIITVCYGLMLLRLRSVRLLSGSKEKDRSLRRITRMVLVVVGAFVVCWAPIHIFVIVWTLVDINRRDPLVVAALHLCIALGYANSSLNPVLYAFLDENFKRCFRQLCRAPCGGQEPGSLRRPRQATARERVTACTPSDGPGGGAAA
T3 sequence (P32300 whole entry): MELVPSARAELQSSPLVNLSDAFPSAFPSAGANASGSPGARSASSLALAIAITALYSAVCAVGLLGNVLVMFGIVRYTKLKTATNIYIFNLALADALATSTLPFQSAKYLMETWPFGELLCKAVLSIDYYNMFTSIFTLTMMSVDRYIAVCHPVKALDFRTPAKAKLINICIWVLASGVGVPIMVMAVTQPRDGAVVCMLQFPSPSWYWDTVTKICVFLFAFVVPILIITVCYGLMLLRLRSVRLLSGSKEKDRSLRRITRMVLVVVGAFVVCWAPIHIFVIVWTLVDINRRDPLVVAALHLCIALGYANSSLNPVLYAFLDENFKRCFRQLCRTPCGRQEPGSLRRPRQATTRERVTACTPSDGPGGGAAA
opioid κ receptor, sequence (P41144 whole entry): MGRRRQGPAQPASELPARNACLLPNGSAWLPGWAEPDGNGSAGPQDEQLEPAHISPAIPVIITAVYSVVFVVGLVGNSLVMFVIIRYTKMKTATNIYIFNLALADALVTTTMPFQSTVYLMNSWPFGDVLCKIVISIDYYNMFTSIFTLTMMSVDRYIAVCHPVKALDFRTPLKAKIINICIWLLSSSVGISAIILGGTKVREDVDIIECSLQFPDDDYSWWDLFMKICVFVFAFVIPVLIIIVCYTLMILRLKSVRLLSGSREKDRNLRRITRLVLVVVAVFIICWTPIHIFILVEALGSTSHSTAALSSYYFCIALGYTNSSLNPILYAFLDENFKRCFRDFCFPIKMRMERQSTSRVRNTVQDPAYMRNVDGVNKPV
δ receptor, sequence (A0A286XTF2 1-366): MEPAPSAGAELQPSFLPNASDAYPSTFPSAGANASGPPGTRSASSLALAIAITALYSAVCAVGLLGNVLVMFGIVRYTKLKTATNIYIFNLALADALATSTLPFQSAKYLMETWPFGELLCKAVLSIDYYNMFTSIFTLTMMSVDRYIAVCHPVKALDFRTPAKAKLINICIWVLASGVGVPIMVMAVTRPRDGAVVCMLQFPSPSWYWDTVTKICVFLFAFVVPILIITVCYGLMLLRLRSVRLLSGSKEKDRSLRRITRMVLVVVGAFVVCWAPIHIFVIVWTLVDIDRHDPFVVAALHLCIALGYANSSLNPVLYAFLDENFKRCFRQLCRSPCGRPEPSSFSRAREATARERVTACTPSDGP
opioid μ receptor, sequence (P33535 whole entry): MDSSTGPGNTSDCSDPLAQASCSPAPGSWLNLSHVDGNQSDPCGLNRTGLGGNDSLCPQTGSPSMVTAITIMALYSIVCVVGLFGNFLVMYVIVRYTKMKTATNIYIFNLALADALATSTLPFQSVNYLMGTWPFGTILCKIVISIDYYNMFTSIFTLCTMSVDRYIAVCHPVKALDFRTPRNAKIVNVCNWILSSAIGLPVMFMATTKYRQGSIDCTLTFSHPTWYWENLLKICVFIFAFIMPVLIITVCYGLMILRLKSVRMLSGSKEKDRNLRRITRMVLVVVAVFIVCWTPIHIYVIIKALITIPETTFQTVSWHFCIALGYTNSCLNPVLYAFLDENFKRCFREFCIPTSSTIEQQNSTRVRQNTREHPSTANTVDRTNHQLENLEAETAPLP
κ receptor, sequence (P41144 whole entry): as the sequence (P41144 whole entry) above

In turn, `CN1CC[C@]23c4c5ccc(O)c4O[C@H]2c2ncccc2C[C@@]3(O)[C@H]1C5` [7b, 6,7-Didehydro-3,14-dihydroxy-4,5α-epoxy-17-methylpyrido[2′,3′:6,7]morphinan] showed a melting point of more than 230 °C. Also, on opioid μ receptor, the “selectivity ratio μ/δ” value came to 0.4 and the Ki stood at 7.9 ± 0.23 nM. For the same molecule, at opioid κ receptor, the “selectivity ratio κ/δ” value was determined as 15 and the Ki was found to be 264 ± 18 nM. For the same molecule, in the data set on mice (icv, mouse tail-flick), the A50 is on record as 67.1 nmol. Also, the naloxone sensitivity entry in the data set with mice is recorded as “yes”. For the same molecule, the Ki at opioid δ receptor worked out at 18 ± 1.4 nM. This molecule also returned a Ki on δ receptor of more than 1000 nM. Also, the Ki on μ receptor [1] was more than 1000 nM. Also, the maximum response (Emax) at μ receptor [2] stood at 40 ± 2%.

`C[C@@H](NC(=O)[C@@H](N)Cc1ccc(O)cc1)C(=O)NCC(=O)N(C)[C@@H](Cc1ccccc1)C(=O)NCCO` [DAMGO, reference compound]: the EC50 at μ receptor [1] turned out to be 414 nM. Further, the Emax on μ receptor [2] was 100%.

With `COc1ccc2c3c1O[C@H]1c4ncc(-c5ccc(Cl)cc5)cc4C[C@H]4[C@@H](C2)N(CC2CC2)CC[C@]314` [7q, 5′-(4-chlorophenyl)-17-(cyclopropylmethyl)-6,7-didehydro-4,5α-epoxy-3-methoxypyrido[2′,3′:6,7]morphinan], the melting point was in the range of 196 to 198 °C. Further, the Ki at opioid δ receptor turned out to be 41 ± 3 nM.

Regarding `COc1ccc2c3c1O[C@H]1c4ncc(-c5ccc(Cl)cc5)cc4C[C@@]4(O)[C@@H](C2)N(C)CC[C@]314` [7o, 5′-(4-chlorophenyl)-6,7-didehydro-4,5α-epoxy-14-hydroxy-3-methoxy-17-methyl-pyrido[2′,3′:6,7]morphinan], the melting point fell in the range of 112 to 114 °C. The Ki at opioid δ receptor was determined as 21 ± 2 nM.

The molecule `C=CCN1C[C@H](C)N([C@H](c2ccc(C(=O)N(CC)CC)cc2)c2cccc(OC)c2)C[C@H]1C` [SNC80, reference compound] came in with an EC50 at δ receptor of 758 ± 131 nM. Besides, the maximal response (Emax) on δ receptor (read-out: agonist activity Emax % δ) stood at 100%.

`CN1CC[C@]23c4c5ccc(O)c4O[C@H]2c2ncccc2C[C@H]3[C@H]1C5` [7f, 6,7-Didehydro-4,5α-epoxy-3-hydroxy-17-methylpyrido[2′,3′:6,7]morphinan]: the melting point lay within 164 to 166 °C. Further, at opioid μ receptor, the “selectivity ratio μ/δ” value was 2.0 and the Ki worked out at 13 ± 0.5 nM. Also, on opioid κ receptor, the “selectivity ratio κ/δ” value is on record as 8 and the Ki was found to be 66 ± 2 nM. For the same molecule, in the data set on mice (icv, mouse tail-flick), the “% nociception @ 100 nmol” value was determined as 75% @100 nmol and the “factor that prevented determining the A50 value” is “insensitivity to naloxone”. Besides, the naloxone sensitivity entry with mice is on record as “no”. Further, at opioid δ receptor, the Ki is 8 ± 0.8 nM. The Ki at δ receptor was 595 ± 48 nM. On μ receptor [1], the EC50 was 502 ± 76 nM and the Ki was more than 1000 nM. Further, the Emax at μ receptor [2] amounted to 44 ± 1%. The IC50 in data set [3] came out at 152 ± 25.5 nM. Besides, in data set [3] (naloxone and ICI-174,864), the “blockade of agonist activity in the MVD by antagonists” value is “blocked by the nonselective antagonist naloxone but not by the δ selective antagonist ICI-174,864”.

Regarding `CN1CC[C@]23c4c5ccc(O)c4O[C@H]2c2ncc(-c4ccccc4)cc2C[C@H]3[C@H]1C5` [7g, 6,7-Didehydro-4,5α-epoxy-3-hydroxy-17-methyl-5′-phenylpyrido[2′,3′:6,7]morphinan], the “selectivity ratio μ/δ” value at opioid μ receptor came out at 13. Moreover, the Ki at opioid μ receptor is 24 ± 2 nM; on opioid κ receptor, 81 ± 5 nM; at opioid δ receptor, 1.9 ± 0.09 nM; at δ receptor, more than 1000 nM; at μ receptor [1], more than 1000 nM. Besides, on opioid κ receptor, the “selectivity ratio κ/δ” value is 43. Moreover, the “% nociception @ 100 nmol” value in the data set with mice (icv, mouse tail-flick) is given as 48% @ 100 nmol. The “toxicity preventing A50 determination” value with mice (icv, mice) was “toxicity”. In the data set on mice, the naloxone sensitivity result is recorded as “yes”. Also, the maximal response (Emax) at μ receptor [2] worked out at 60%. For the same molecule, the IC50 in data set [3] was found to be 48.4 ± 8.65 nM.

`COc1ccc2c3c1O[C@H]1c4ncccc4C[C@@]4(O)[C@@H](C2)N(C)CC[C@]314` [7m, 6,7-Didehydro-4,5α-epoxy-14-hydroxy-3-methoxy-17-methylpyrido[2′,3′:6,7]morphinan] had a melting point of 210 to 212 °C. Also, on opioid δ receptor, the Ki is 143 ± 9 nM.

With `C=CCN1CC[C@]23c4c5ccc(O)c4O[C@H]2c2ncc(-c4ccc(Cl)cc4)cc2C[C@@]3(O)[C@H]1C5` [7a, 17-(Allyl)-6,7-didehydro-3,14-dihydroxy-4,5α-epoxy-5′-(4-chlorophenyl)pyrido[2′,3′:6,7]morphinan], the melting point was in the range of 168 to 172 °C. Further, the “reduction in affinity at the δ site compared to 2c” value on opioid δ receptor (N-allyl vs N-CPM) is 4 fold. The Ki at opioid δ receptor came to 8.2 ± 0.07 nM.

For the molecule `Oc1ccc2c3c1O[C@H]1c4ncc(-c5ccc(Cl)cc5)cc4C[C@H]4[C@@H](C2)N(CC2CC2)CC[C@]314` [7l, 5′-(4-Chlorophenyl)-17-(cyclopropylmethyl)-6,7-didehydro-4,5α-epoxy-3-hydroxypyrido[2′,3′:6,7]morphinan], the melting point is 178 to 180 °C. In addition, on opioid μ receptor, the “selectivity ratio μ/δ” value worked out at 24 and the Ki worked out at 62 ± 3 nM. On opioid κ receptor, the “selectivity ratio κ/δ” value worked out at 2.3 and the Ki is 6 ± 0.3 nM. Besides, the “% nociception @ 300 nmol” value in the data set on mice (icv, 300 nmol, mouse tail-flick) was 18% @ 300 nmol. Further, in the data set with mice (icv, mouse tail-flick), the “factor that prevented determining the A50 value” is “lack of efficacy”. Further, the Ki at opioid δ receptor is 2.6 ± 0.12 nM. Further, the Kb in [4] is 6 ± 1.33 nM. Also, the Ki at κ receptor stood at 11.2 ± 0.62 nM. At δ receptor, this molecule gave a Ki of 1.56 ± 0.14 nM.

For `CN1CC[C@]23c4c5ccc(O)c4O[C@H]2c2ncc(-c4ccc(Cl)cc4)cc2C[C@H]3[C@H]1C5` (as salt: salt) [7h, 5′-(4-Chlorophenyl)-6,7-didehydro-4,5α-epoxy-3-hydroxy-17-methylpyrido[2′,3′:6,7]morphinan], the melting point is 276 to 278 °C (dec.).

With `CN1CC[C@]23c4c5ccc(O)c4O[C@H]2[C@@H](O)C=C[C@H]3[C@H]1C5` [Morphine, reference compound], the A50 in the data set with mice (icv, mouse tail-flick) was found to be 4.2 nmol. Besides, the naloxone sensitivity result in the data set on mice is “yes”.

These data come from patent US7541364B2, “Pyridomorphinans, pyridazinomorphinans and use thereof” (priority 2003, dated 2009).
